Data on two compounds can be found in patent publication US6040330A, “Pharmaceutical formulations of taxanes” (BioNumerik Pharmaceuticals, Inc., priority 1999, dated 2000).

≈ marks a conversion by molar mass, not a printed value.

Series [1] can be described thus: maximum solubility in NMP. Format: physicochemical. Conditions: organic solvent or mixture; in NMP (N-methylpyrrolidin-2-one).
For series [2] the following is noted: cited from earlier work.

What is called solubility is how much of the substance goes into solution per volume.

As to `CC(=O)O[C@@]12CO[C@@H]1C[C@H](O)[C@@]1(C)C(=O)[C@H](O)C3=C(C)[C@@H](OC(=O)[C@H](O)[C@@H](NC(=O)OC(C)(C)C)c4ccccc4)C[C@@](O)([C@@H](OC(=O)c4ccccc4)[C@H]21)C3(C)C` [Docetaxel], in series [1], the solubility was around 40 mg/mL (≈ 49.5 mM). Also, the “solubility in water (in words)” value in series [2] is “very poorly soluble in water”.

With `CC(=O)O[C@H]1C(=O)[C@@]2(C)[C@H]([C@H](OC(=O)c3ccccc3)[C@]3(O)C[C@H](OC(=O)[C@H](O)[C@@H](NC(=O)c4ccccc4)c4ccccc4)C(C)=C1C3(C)C)[C@]1(OC(C)=O)CO[C@@H]1C[C@@H]2O` [Paclitaxel], the solubility in series [1] was around 40 mg/mL (≈ 46.8 mM). For the same compound, the “solubility in water (in words)” value in series [2] is “very poorly water soluble”. In series [2] (in water), the water solubility result is “less than 10 μg/mL”.
